Laboratory results from patent US20260241062A1, “WATER-DISPERSED PRESSURE-SENSITIVE ADHESIVE COMPOSITION AND PRESSURE-SENSITIVE ADHESIVE SHEET” (NITTO DENKO CORPORATION, priority 2023, published 2026).
Read-outs that look alike come from different tables or passages of the source.

How the values were obtained:
[1] = acid dissociation constant (pKa) of the monomers
[2] = at 20° C.; cited from earlier work
[3] = acid dissociation constant of each component

With “2-acryloyloxyethyl succinic acid [HOA-MS]” the pKa [1, 3] was 4.35.

For C=CC(=O)N1CCOCC1 [ACMO, N-acryloylmorpholine], the pKa [1] was -1.08.

For C=CC(=O)N(CC)CC [DEAA, diethylacrylamide], the Water solubility [2] is given as “Soluble” and the pKa [1, 3] is given as −0.77.

For C=CC(=O)NCCCN(C)C [DMAPAA, dimethylaminopropylacrylamide], the Water solubility [2] is given as “Soluble” and the pKa [1, 3] is given as 14.88.

For C=C(C)C(=O)O [MAA, methacrylic acid], the Water solubility [2] is listed as 9.7 g/100 mL and the pKa [1] is listed as 4.66.

For C=C(C)C(=O)OC [MMA, methyl methacrylate], the Water solubility [2] is given as 1.6 g/100 mL.

For C=CC(=O)NC(C)C [NIPAM, N-isopropylacrylamide], the Water solubility [2] is given as <0.1 g/100 mL and the pKa [1] is given as 14.8.

For C=CN1CCCC1=O [NVP, N-vinylpyrrolidone], the Water solubility [2] is given as “Miscible” and the pKa [1] is given as -0.34.
